Where two headings read alike, the source gives them in different places. Each block holds one compound with its values, some of them ahead of it.
Experiments:
[1] = parameters: species or system rats; conditions: rat, in vivo, iv, 30 min
Procedure: (§1) Biological tissue distribution studies were performed on rats, dogs and monkeys injected intravenously with 25 μCi and 100 μCi respectively of I-125 iodobenzylguanidine in an average volume of 0.3 ml, 2 ml, and 1 ml respectively. Representative samples of tissues were counted in an autogamma counter with corrections made for radioactive decay, background, and counter efficiency. To normalize for differences in animal weights, tissue concentrations are expressed as percent kilogram dose per gram.

[2] = parameters: species or system Rhesus Monkeys; conditions: rhesus monkey, in vivo, iv, 180 min
Procedure: as §1

[3] = Biological tissue distribution of I-125 iodobenzylguanidine in dogs; type: in vivo, Female Mongrel Dogs
Procedure: as §1

[4] = Stability of radiolabeled compound on storage in solution; type: physicochemical; conditions: 4° C., dark
From the text: The radiochemical purity was greater than 98% as determined by thin-layer chromotography on silica gel G using two solvent systems: (1) 1/l ethyl acetate: ethanol (Rf=0.0; Rf of free radioiodide=0.60); (2) 3/l n-propanol: 10% ammonium hydroxide (Rf=0.15, Rf of free radioiodide=0.75, Rf of meta-iodobenzylamine=0.35). […] Final […].

adrenal medulla = assay: MIBG adrenal imaging in MEN-2 patients; type: in vivo, human; conditions: for MIBG Adrenal Imaging: 1 and 2 days
Procedure: To display adrenal medullary abnormalities, 500 μCi of ^131 I-mIBG was injected into 6 patients from 5 families with MEN-2 and scintiscans were performed 1 and 2 days later. Percent administered dose uptake was calculated using a semioperator independent algorithm. Adrenal medullary function was assessed by plasma norepinephrine (N) and epinephrine (E) and urinary N, E, metanephrine (M), and normetanephrine (NM) levels.

Pheochromocytomas (PHEO) = assay: Scintigraphic localization of pheochromocytomas with I-131-mIBG in patients and controls; type: in vivo, human
Procedure: Pheochromocytomas (PHEO) were localized with I-131-meta-iodobenzylguanidine(^131 I-mIBG). Five hypertensive patients without PHEO served as controls. I-131-mIBG, 0.5 mCi, was given i.v. Images of areas of interest were made at 24, 48 and 72 hours post-injection. Adrenal (tumor) uptake was estimated with a semioperator-independent computer algorithm. All patients with sporadic PHEO gave clinical and hormonal evidence of their disease.

[5] = test system: adrenergic neurons of the heart and chromaffin granules of the adrenal medulla; assay: Localization in adrenergic tissues; type: in vivo

SMILES: N=C(N)NCc1cccc([125I])c1 [I-125 iodobenzylguanidine]
Tissue concentration, Blood (Mean ± S.E.M.) [1]: .03 ± .00 % Kg Dose/g
Tissue concentration, Heart (Mean ± S.E.M.) [1]: 1.09 ± .06 % Kg Dose/g
Tissue concentration, Liver (Mean ± S.E.M.) [1]: .36 ± .02 % Kg Dose/g
Tissue concentration, Lung (Mean ± S.E.M.) [1]: .70 ± .06 % Kg Dose/g
Tissue concentration, Muscle (Mean ± S.E.M.) [1]: .25 ± .02 % Kg Dose/g
Tissue concentration, Thyroid (Mean ± S.E.M.) [1]: .76 ± .04 % Kg Dose/g
Tissue concentration, Adrenal Cortex (Mean ± S.E.M.) [2]: 0.42 ± .12 % Kg Dose/g
Tissue concentration, Adrenal Medullae (Mean ± S.E.M.) [2]: 2.69 ± .28 % Kg Dose/g
Tissue concentration, Blood (Mean ± S.E.M.) [2]: 0.02 ± .00 % Kg Dose/g
Tissue concentration, Heart (Mean ± S.E.M.) [2]: 0.64 ± .03 % Kg Dose/g
Tissue concentration, Liver (Mean ± S.E.M.) [2]: 0.76 ± .03 % Kg Dose/g
Tissue concentration, Lung (Mean ± S.E.M.) [2]: 0.17 ± .00 % Kg Dose/g
Tissue concentration, Muscle (Mean ± S.E.M.) [2]: 0.02 ± .00 % Kg Dose/g
Tissue concentration, Liver (Mean ± S.E.M.) ([3]; dog, in vivo, iv, 30 min): 0.34 ± .03 % Kg Dose/g
Tissue concentration, Lung (Mean ± S.E.M.) ([3]; dog, in vivo, iv, 30 min): 0.22 ± .06 % Kg Dose/g
Tissue concentration, Muscle (Mean ± S.E.M.) ([3]; dog, in vivo, iv, 30 min): 0.02 ± .00 % Kg Dose/g
Tissue concentration, Thyroid (Mean ± S.E.M.) ([3]; dog, in vivo, iv, 30 min): 0.56 ± .07 % Kg Dose/g
Tissue concentration, Adrenal Cortex (Mean ± S.E.M.) ([3]; dog, in vivo, iv, 120 min): 0.39 ± .05 % Kg Dose/g
Tissue concentration, Adrenal Medulla (Mean ± S.E.M.) ([3]; dog, in vivo, iv, 120 min): 6.29 ± .25 % Kg Dose/g
Tissue concentration, Blood (Mean ± S.E.M.) ([3]; dog, in vivo, iv, 120 min): 0.02 ± .00 % Kg Dose/g
Tissue concentration, Heart (Mean ± S.E.M.) ([3]; dog, in vivo, iv, 120 min): 0.50 ± .10 % Kg Dose/g
Tissue concentration, Liver (Mean ± S.E.M.) ([3]; dog, in vivo, iv, 120 min): .017 ± .05 % Kg Dose/g
Tissue concentration, Lung (Mean ± S.E.M.) ([3]; dog, in vivo, iv, 120 min): 0.46 ± .13 % Kg Dose/g
Tissue concentration, Muscle (Mean ± S.E.M.) ([3]; dog, in vivo, iv, 120 min): 0.04 ± .00 % Kg Dose/g
Tissue concentration, Adrenal Cortex (Mean ± S.E.M.) ([3]; dog, in vivo, iv, 2880 min): 0.10 ± .01 % Kg Dose/g
Tissue concentration, Adrenal Medulla (Mean ± S.E.M.) ([3]; dog, in vivo, iv, 2880 min): 13.6 ± 1.1 % Kg Dose/g
Tissue concentration, Blood (Mean ± S.E.M.) ([3]; dog, in vivo, iv, 2880 min): 0.01 ± .00 % Kg Dose/g
Tissue concentration, Heart (Mean ± S.E.M.) ([3]; dog, in vivo, iv, 2880 min): 0.06 ± .01 % Kg Dose/g
Tissue concentration, Liver (Mean ± S.E.M.) ([3]; dog, in vivo, iv, 2880 min): 0.02 ± .00 % Kg Dose/g
Tissue concentration, Lung (Mean ± S.E.M.) ([3]; dog, in vivo, iv, 2880 min): 0.03 ± .00 % Kg Dose/g
Tissue concentration, Muscle (Mean ± S.E.M.) ([3]; dog, in vivo, iv, 2880 min): 0.02 ± .00 % Kg Dose/g
Tissue concentration, Adrenal Cortex (Mean ± S.E.M.) ([3]; dogs (2), i.v., 30 min, adrenal cortex): 0.61 ± .02 % Kg Dose/g
Tissue concentration, Adrenal Medulla (Mean ± S.E.M.) ([3]; dogs (2), i.v., 30 min, adrenal medulla): 5.35 ± .71 % Kg Dose/g
Tissue concentration, Blood (Mean ± S.E.M.) ([3]; dogs (2), i.v., 30 min, blood): 0.02 ± .00 % Kg Dose/g
Tissue concentration, Heart (Mean ± S.E.M.) ([3]; dogs (2), i.v., 30 min, heart): 0.47 ± .02 % Kg Dose/g
Tissue concentration, Thyroid (Mean ± S.E.M.) ([3]; dogs (2), i.v., 2 hours, thyroid): 0.56 ± .05 % Kg Dose/g
Tissue concentration, Thyroid (Mean ± S.E.M.) ([3]; dogs (2), i.v., 48 hours, thyroid): 1.27 ± .47 % Kg Dose/g

radio-composition (decomposition) on storage ([4]; up to 4 days as sulfate salt in water or physiological buffered saline, I-123): minimal detectable radio-composition
SMILES: N=C(N)NCc1cccc([123I])c1 [I^123 -meta-iodobenzylguanidine]

decomposition on storage ([4]; up to 4 days as sulfate salt in water or physiological saline, I-131): no detectable decomposition
SMILES: N=C(N)NCc1cccc([131I])c1 [^131 I-mIBG, I^131 -meta-iodobenzylguanidine]
MIBG Adrenal Imaging (adrenal medulla; patient 1 (apparently unaffected, plasma/urine normal), 500 μCi): Nonvisualized
MIBG Adrenal Imaging (adrenal medulla; patient 2 (MEN 2a, plasma/urine normal), 500 μCi): Nonvisualized
MIBG Adrenal Imaging (adrenal medulla; patient 3 (MEN 2a, urine M raised), 500 μCi): Faint bilateral
MIBG Adrenal Imaging (adrenal medulla; patient 4 (MEN 2b, plasma N, urine NM raised), 500 μCi): Distinct bilateral
MIBG Adrenal Imaging (adrenal medulla; patient 5 (MEN 2a, plasma N,E, urine E,NM,M raised), 500 μCi): Distinct bilateral
MIBG Adrenal Imaging (adrenal medulla; patient 6 (MEN 2a, plasma N,E, urine E,NM,M raised), 500 μCi): Asymmetric bilateral
scintigraphy of right adrenal gland (adrenal medulla; patient 6, confirmed at surgery, only irregular area on CT): two distinct tumors
adrenal imaging, patients 1 and 2 (adrenal medulla; patients 1 and 2, pattern recognized by control studies as normal): Neither patient 1 nor patient 2, who was affected with medullary thyroid carcinoma, showed adrenal imaging
percent uptake by the adrenal glands versus hormone values (adrenal medulla; remaining 4 patients (3-6), 500 μCi): increased proportionally to the urine and plasma hormone values
activity seen in malignant (metastatic) PHEO (Pheochromocytomas (PHEO); another patient with malignant (metastatic) PHEO): only ill-defined activity was seen
scintigrams in PHEO patients (Pheochromocytomas (PHEO); each of eight PHEO patients, 0.5 mCi i.v., 24, 48 and 72 hours): located abnormal collections of activity
patients in whom abnormalities correspond to PHEOs subsequently excised (Pheochromocytomas (PHEO); eight PHEO patients, 0.5 mCi i.v.): 7 of the 8
scintigraphic image of adrenal glands in control subjects (Pheochromocytomas (PHEO); five hypertensive controls without PHEO, 0.5 mCi i.v., 24, 48 and 72 hours): little or no scintigraphic image of their adrenal glands
activity seen in malignant (metastatic) PHEO (Pheochromocytomas (PHEO); one patient with malignant (metastatic) PHEO): multiple areas of activity were seen in the skull, chest and abdomen

SMILES: N=C(N)NCc1cccc(I)c1 [meta-iodobenzylguanidine, Meta-iodobenzylguanidine]
accumulation in adrenergic tissues ([5]; compared with norepinephrine and guanethidine): accumulated in adrenergic tissues in a manner similar to norepinephrine and guanethidine
localization ([5]; heart and adrenal medulla): localizes in the adrenergic neurons of the heart and chromaffin granules of the adrenal medulla
